# Results published in ChEMBL document CHEMBL5316275 (J Med Chem, 2023).
# Target: Albumin (Homo sapiens, UniProt P02768)
# Experiment: Binding affinity to human serum albumin assessed as association constant measured after 18 hrs by equilibrium dialysis method
# Albumin, sequence (P02768 whole entry): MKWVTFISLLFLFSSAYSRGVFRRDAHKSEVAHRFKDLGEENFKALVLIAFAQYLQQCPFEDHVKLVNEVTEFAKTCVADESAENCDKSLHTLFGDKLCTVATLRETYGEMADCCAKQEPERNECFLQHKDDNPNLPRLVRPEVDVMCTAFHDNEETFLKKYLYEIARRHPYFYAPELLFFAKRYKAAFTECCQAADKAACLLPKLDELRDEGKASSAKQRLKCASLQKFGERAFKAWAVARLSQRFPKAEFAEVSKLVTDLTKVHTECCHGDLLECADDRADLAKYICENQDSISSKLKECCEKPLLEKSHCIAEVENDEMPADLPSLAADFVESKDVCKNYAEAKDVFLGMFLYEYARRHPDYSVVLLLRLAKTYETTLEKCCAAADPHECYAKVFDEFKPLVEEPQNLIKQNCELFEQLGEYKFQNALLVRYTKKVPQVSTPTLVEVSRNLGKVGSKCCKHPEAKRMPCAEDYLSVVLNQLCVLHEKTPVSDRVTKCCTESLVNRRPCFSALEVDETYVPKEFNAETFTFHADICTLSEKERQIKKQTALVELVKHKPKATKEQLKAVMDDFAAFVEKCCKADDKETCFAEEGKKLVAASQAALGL
row,Structure (SMILES),K
1,COc1c(C)c2c(c(O)c1C/C=C(\C)CCC(=O)OCCN1CCOCC1)C(=O)OC2 [MYCOPHENOLATE MOFETIL],0.83 10^5/M
2,COC(=O)CC/C(C)=C/Cc1c(O)c2c(c(C)c1OC)COC2=O,1.91 10^5/M
